Legend:
[1] = system: 3′ and 5′ 32P labeled 241 base pair restriction fragments containing the HIV-1 promoter; test: Thermal cleavage assay (heat-induced single-strand DNA cleavage); format: biochemical
Description: Storage phosphor autodiograms of 8% denaturing polyacrylamide gels used to separate the fragments generated by heat induced DNA cleavage at alkylation sites. All reactions contained 10,000 cpm restriction fragment, 10 mM Tris.HCl (pH 7.0), 10 mM KCl, 10 mM MgCl and 5 mM CaCl and were performed at 37° C. Following 24 hour of equilibration, the DNA pellet was resuspended in sodium citrate buffer (pH=7.2) and heated to 90° C. for 15 min to thermally cleave at sites of adenine- or guanine-N3 lesions. (a) 5′-^32P-end-labeled restriction fragment (SEQ ID NO:5). (b) 3′-^32P-end-labeled restriction fragment. (a-b) Lane 1, intact DNA; lane 2, A-specific reaction; lane 3, G-specific reaction; lanes 5-13, […], respectively. (b) Lane 14, 10 μM CHL-Dp (5). Center, alkylation sites on the DNA fragment, indicate by arrows. Sites 5′-TCGTCGACGA-3′ (SEQ ID NO:20) (A), 5′-ACGTCGA-3′ (B), and 5′-ACGTCGA-3′ (E) are match sites and 5′-ACATCTT-3′ (C) and 5′-TCGTCAG-3′ (D) are double base pair mismatches (mismatches indicated by gray boxes).
Storage phosphor autodiogram of 8% denaturing polyacrylamide gels used to separate the fragments generated by heat induced DNA cleavage at alkylation sites. All reactions contained 10,000 cpm restriction fragment, 10 mM Tris.HCl (pH 7.0), 10 mM KCl, 10 mM MgCl2 and 5 mM CaCl2 and were performed at 37° C. Following of equilibrations of 10 minutes-24 hours, the DNA pellet was resuspended in sodium citrate buffer (pH=7.2) and heated to 90° C. for 15 min to thermally cleave at sites of adenine- or guanine-N3 lesions. Lane 1, intact DNA; lane 2, A-specific reaction; lane 3, G-specific reaction; lanes 4-11, 500 pM ImPy-β-ImPy-(R)^CHLγ-ImPy-β-ImPy-β-Dp (2), equilibrations for 10 min, 20 min, 30 min, 1 h, 2 h, 4 h, 12 h, 24 h, respectively. Right. models bound to match sites on the DNA fragment (SEQ ID NO:15). The polyamide is colored as in FIG. 7. The solid arrows indicate cleavage bands from cleavage sites of adenine- or guanine-N3 lesions on the restriction fragment.
All reactions were executed in a total volume of 40 μl. A polyamide stock solution or H2O was added to an assay buffer containing radiolabeled restriction fragment (10,000 cpm), affording final solution conditions of 10 mM Tris.HCl, 10 mM KCl, 10 mM MgCl2, 5 mM CaCl2, pH 7.0, and either 1 pM-10 nM nitrogen mustard-polyamide conjugate or no conjugate (for reference lanes). The solutions were equilibrated at 37° C. for the desired time period. The reactions were stopped by the addition of 60 μl of a solution containing 0.6 M NaOAc, 12.5 mM EDTA, 0.15 mM (bp) calf thymus DNA, 2.0 M NaCl, 0.8 mg/ml glycogen, and ethanol precipitated. Reactions were resuspended in 40 μl […] sodium citrate buffer, pH 7.2, and heated for […] The reactions were ethanol precipitated and resuspended in 1×TBE/80% formamide loading buffer, denatured by heating at 85° C. for 10 minutes, and placed on ice. The reaction products were separated by electrophoresis on an 8% polyacrylamide gel (5% cross-link, 7 M urea) in 1×TBE at 2000 V. Gels were dried and exposed to a storage phosphor screen (Molecular Dynamics) [Johnston, R. F., Pickett, S. C. & Barker, D. L. (1990). Autoradiography using storage phosphor technology. Electrophoresis 11, 355-360].

[2] = system: 5′-end labeled and 3′-end labeled 277 base pair restriction fragment; test: Thermally induced strand cleavage by seco-CBI conjugates; format: biochemical; settings: for concentration range of alkylation by CBI control compounds: FIG. 17, 1 μM and 10 μM, 12 H, 37° C.
Description: Storage phosphor autoradiograms of 8% denaturing polyacrylamide gels used to separate the fragments generated by heat induced DNA cleavage at alkylation sites. All lanes contain 10 kcpm of either 5′ or 3′ radiolabeled DNA. Each reaction was equilibrated in TE, pH 7.5 at 37° C. for 12 H. The unbound polyamide was removed by precipitation, and then strand cleavage was induced by heating at 95° C. for 30 min. (a) 5′-^32P-end labeled restriction fragment (SEQ ID NO:18). (b) 3′-^32P-end labeled restriction fragment. (a-b) lanes 1 and 14, intact DNA; lanes 2-11, 15-24, 1 pM, 2 pM, 5 pM, 10 pM, 20 pM, 50 pM, 100 pM, 200 pM, 500 pM, 1 nM respectively of the corresponding polyamide; lanes 12 and 25, A-specific reaction; lanes 13 and 26, G-specific reaction. (a-b) Ball-and-stick models of polyamides bound to match and mismatch sites on the DNA fragment. Match sites 5′-TGGTCA-3′ and 5′-AGGACT-3′ and single base pair mismatch site 5′-AGGAGT-3′ are indicated in bold on the sequence, with arrows indicating cleavage bands. The polyamide is colored as in FIG. 10, with the bold triangle representing (R)-CBI.
Storage phosphor autoradiograms of 8% denaturing polyacrylamide gels used to separate the fragments generated by heat induced DNA cleavage at alkylation sites. All lanes contain 10 kcpm of either 5′ or 3′ radiolabeled DNA. Each reaction was equilibrated in TE, pH 7.5 at 37° C. from 0 to 10 hours. The unbound polyamide was removed by precipitation, and then strand cleavage was induced by heating at 95° C. for 30 min. (a) 5′-^32P-end labeled restriction fragment (SEQ ID NO: 18). (b) 3′-^32P-end labeled restriction fragment. (a-b) lanes 1 and 11, intact DNA; lanes 2-8, 1 nM of corresponding polyamide, equilibrations for 0, 15 minutes, 30 minutes, 1 hour, 2 hours, 5 hours, and 10 hours, respectively; lanes 9 and 19, A-specific reaction; lanes 10 and 20, G-specific reaction. (a-b) Ball-and-stick models of polyamides bound to match and mismatch sites on the DNA fragment. Match sites 5′-TGGTCA-3′ and 5′-AGGACT-3′ and single base pair mismatch site 5′-AGGAGT-3′ are indicated in bold on the sequence, with arrows indicating cleavage bands. The polyamide is colored as in FIG. 10, with the bold triangle representing (R)-CBI.
Storage phosphor autoradiograms of 8% denaturing polyacrylamide gels used to separate the fragments generated by heat induced DNA cleavage at alkylation sites. All lanes contain 10 kcpm of either 5′ or 3′ radiolabeled DNA. Each reaction was equilibrated in TE, pH 7.5 at 37° C. for 12 H. The unbound polyamide or agent was removed by precipitation, and then strand cleavage was induced by heating at 95° C. for 30 min. (a) 5′-^32P-end labeled restriction fragment. (b) 3′-^32P-end labeled restriction fragment. (a-b) Lane 1, intact DNA; lane 2, 1R, 1 nM; lane 3 1S, 1 nM; lanes 4-5, 2R, 1 μM and 10 μM, respectively; lanes 6-7, 2S, 1 μM and 10 μM, respectively; lane 8, A-specific reaction; lane 9, G-specific reaction.
All reactions were carried out in a volume of 50 μl. A polyamide or seco-CBI-dimethyl gaba stock solution or water (for reference lane) was added to an assay buffer of TE (pH7.5) and […] of 3′- or 5′-radiolabeled DNA. The solutions were allowed to equilibrate for 12 hours or the appropriate time (for time course reactions) at 37° C. The reactions were stopped with 60 μl of a solution containing NaOAc (600 mM), EDTA pH 8.0 (12.5 mM), calf thymus DNA (150 μM base pair), glycogen (0.8 mg mL^−1), and NaCl (2 M). Ethanol was added to remove unbound polyamide and precipitate the products. The reactions were resuspended in 20 μl of TE (pH 7.5) and cleavage was initiated by heating at 95° C. for 30 minutes. The cleavage products were precipitated with 150 μl ethanol and then resuspended in 100 mM trisborate-EDTA/80% formamide loading buffer, and denatured and loaded onto polyacrylamide gels as previously reported. The gels were quantitated by the use of storage phosphor technology. […]

Molecule: CN(C)CCCNC(=O)CCCc1ccc(N(CCCl)CCCl)cc1 [compound 4, 4-{4-[bis (2-chloroethyl)amino]phenyl}-N-[3-(dimethylamino)propyl]butanamide]
- cleavage by freely diffusing alkylator ([1]; 10 μM concentration): no cleavage

Molecule: (R)-Seco-CBI-β-alanine-(dimethyl)-β-aminobutyric acid [2R]
- concentration range of alkylation by CBI control compounds [2]: alkylate only at micromolar concentrations

Molecule: (S)-Seco-CBI-β-alanine-(dimethyl)-γ-aminobutyric acid [2S]
- concentration range of alkylation by CBI control compounds [2]: alkylate only at micromolar concentrations

Molecule: ImImPyPy-(R)^(R)-CBIγ-ImPyPyPy-β-Dp [conjugate 1R]
- alkylation efficiency and rate compared with the other enantiomer conjugate [2]: higher alkylation efficiency and faster rates of alkylation than 1S
- alkylation on the 5′-labeled strand [2]: no alkylation
- site of alkylation [2]: alkylation at the site which includes a match site for the polyamide

Molecule: ImImPyPy-(R)^(S)-CBIγ-ImPyPyPy-β-Dp [conjugate 1S]
- site of alkylation [2]: alkylates adjacent to a match site

Molecule: ImPy-β-ImPy-(R)^CHLγ-ImPy-β-ImPy-β-Dp [conjugate 2]
- concentration at which minor cleavage was observed proximal to double base pair mismatch sites [1]: greater than 1 nM
- specificity for reaction at match sites over mismatch sites [1]: approximately 20 fold
- earliest time at which cleavage was detectable ([1]; 0.5 nM, pH 7.0, 37° C.): 10 min
- final cleavage yield on the bottom strand ([1]; 0.5 nM, pH 7.0, 37° C., 24 hours): 45%
- time at which alkylation was half completed at match sites ([1]; 0.5 nM, pH 7.0, 37° C., monitored for 24 hours): 2.2 h
- cleavage on one strand (bottom strand) ([1]; 10 nM concentration, 37° C.): quantitative cleavage
- alkylation at subnanomolar concentrations ([1]; subnanomolar concentrations): high yield

— patent publication US6559125B1, “Polyamide-alkylator conjugates and related products and method” (priority 2000, dated 2003)
